Laboratory results: the kinase profiling compilation of Christmann-Franck et al. (2016)

Key:
Assay in all cases: Caliper, Mobility shift assay off-chip
EPHA1 (human) = EPHA1 (human) (UniProt P21709)
IKBKE (human) = IKBKE (human) (UniProt Q14164)
RPS6KA1 KD1 KD2 (human) = RPS6KA1 KD1 KD2 (human) (UniProt Q15418); conditions: compound 0.2 µM
ABL2 (human) = ABL2 (human) (UniProt P42684)
KIT (human) = KIT (human) (UniProt P10721)
PRKD2 (human) = PRKD2 (human) (UniProt Q9BZL6)
CDC7 (human) = CDC7 (human) (UniProt O00311)
TNIK (human) = TNIK (human) (UniProt Q9UKE5)
TNK2 (human) = TNK2 (human) (UniProt Q07912)
CDK7 (human) = CDK7 (human) (UniProt P50613)
Sequence of CDK7 (human) (P50613 whole entry, looked up): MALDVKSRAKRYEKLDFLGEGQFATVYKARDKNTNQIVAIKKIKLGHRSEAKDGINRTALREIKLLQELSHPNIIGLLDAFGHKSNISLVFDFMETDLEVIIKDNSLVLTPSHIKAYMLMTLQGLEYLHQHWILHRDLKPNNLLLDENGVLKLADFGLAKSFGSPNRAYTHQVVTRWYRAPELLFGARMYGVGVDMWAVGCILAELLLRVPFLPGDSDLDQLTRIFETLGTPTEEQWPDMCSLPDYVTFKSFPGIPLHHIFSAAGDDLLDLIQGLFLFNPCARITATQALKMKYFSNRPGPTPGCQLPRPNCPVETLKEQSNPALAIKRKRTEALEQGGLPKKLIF

CSK (human) = CSK (human) (UniProt P41240)
ALK NPM1 (human) = ALK NPM1 (human) (UniProt P06748+Q9UM73)
NIM1 (human) = NIM1 (human) (UniProt Q8IY84)
FGFR2 (human) = FGFR2 (human) (UniProt P21802)
CDK6 (human) = CDK6 (human) (UniProt Q00534)
RET (human) = RET (human) (UniProt P07949)
FGR (human) = FGR (human) (UniProt P09769); conditions: compound 0.2 µM
HCK (human) = HCK (human) (UniProt P08631)
PHKG2 (human) = PHKG2 (human) (UniProt P15735)
Sequence of PHKG2 (human) (P15735 whole entry, looked up): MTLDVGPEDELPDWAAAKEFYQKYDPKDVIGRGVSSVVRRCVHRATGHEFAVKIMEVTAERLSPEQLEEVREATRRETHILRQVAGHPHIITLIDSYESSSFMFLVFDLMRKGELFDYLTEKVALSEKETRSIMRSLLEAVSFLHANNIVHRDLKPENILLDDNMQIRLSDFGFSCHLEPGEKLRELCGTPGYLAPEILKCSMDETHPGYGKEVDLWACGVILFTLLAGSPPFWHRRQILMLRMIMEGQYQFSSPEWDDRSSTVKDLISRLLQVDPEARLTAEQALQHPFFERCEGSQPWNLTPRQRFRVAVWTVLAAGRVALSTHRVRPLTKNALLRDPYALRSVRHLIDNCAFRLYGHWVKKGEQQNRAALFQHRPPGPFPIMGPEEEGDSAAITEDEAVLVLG

BTK (human) = BTK (human) (UniProt Q06187)
TSSK2 (human) = TSSK2 (human) (UniProt Q96PF2)
Sequence of TSSK2 (human) (Q96PF2 whole entry, looked up): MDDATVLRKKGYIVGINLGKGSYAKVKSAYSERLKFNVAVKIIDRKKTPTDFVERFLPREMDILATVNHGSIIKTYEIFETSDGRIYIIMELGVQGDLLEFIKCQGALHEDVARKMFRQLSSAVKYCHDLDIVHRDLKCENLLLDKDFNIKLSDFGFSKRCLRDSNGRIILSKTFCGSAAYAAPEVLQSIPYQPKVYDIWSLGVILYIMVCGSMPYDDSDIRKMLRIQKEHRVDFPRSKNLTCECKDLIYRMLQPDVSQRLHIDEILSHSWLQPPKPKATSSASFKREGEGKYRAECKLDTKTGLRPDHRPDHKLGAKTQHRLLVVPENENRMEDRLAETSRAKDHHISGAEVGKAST

CAMK2B (human) = CAMK2B (human) (UniProt Q13554)
AKT1 (human) = AKT1 (human) (UniProt P31749)
PRKCI (human) = PRKCI (human) (UniProt P41743)
Sequence of PRKCI (human) (P41743 whole entry, looked up): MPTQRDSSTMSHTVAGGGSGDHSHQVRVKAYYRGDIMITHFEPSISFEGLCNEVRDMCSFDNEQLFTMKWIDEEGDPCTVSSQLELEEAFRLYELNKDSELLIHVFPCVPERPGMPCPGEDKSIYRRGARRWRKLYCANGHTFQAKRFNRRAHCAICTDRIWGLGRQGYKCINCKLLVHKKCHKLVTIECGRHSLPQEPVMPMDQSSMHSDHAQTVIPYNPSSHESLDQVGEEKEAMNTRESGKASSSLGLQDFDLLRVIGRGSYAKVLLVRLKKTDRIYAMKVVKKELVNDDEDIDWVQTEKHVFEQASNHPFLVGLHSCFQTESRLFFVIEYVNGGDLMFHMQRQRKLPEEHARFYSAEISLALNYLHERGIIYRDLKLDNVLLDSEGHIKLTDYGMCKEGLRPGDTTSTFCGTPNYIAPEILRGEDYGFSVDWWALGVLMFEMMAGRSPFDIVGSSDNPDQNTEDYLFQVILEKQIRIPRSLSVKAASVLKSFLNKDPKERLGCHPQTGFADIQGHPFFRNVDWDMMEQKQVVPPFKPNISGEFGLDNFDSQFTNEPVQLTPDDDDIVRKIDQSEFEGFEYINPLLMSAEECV

SPHK2 (human) = SPHK2 (human) (UniProt Q9NRA0)
Sequence of SPHK2 (human) (Q9NRA0 whole entry, looked up): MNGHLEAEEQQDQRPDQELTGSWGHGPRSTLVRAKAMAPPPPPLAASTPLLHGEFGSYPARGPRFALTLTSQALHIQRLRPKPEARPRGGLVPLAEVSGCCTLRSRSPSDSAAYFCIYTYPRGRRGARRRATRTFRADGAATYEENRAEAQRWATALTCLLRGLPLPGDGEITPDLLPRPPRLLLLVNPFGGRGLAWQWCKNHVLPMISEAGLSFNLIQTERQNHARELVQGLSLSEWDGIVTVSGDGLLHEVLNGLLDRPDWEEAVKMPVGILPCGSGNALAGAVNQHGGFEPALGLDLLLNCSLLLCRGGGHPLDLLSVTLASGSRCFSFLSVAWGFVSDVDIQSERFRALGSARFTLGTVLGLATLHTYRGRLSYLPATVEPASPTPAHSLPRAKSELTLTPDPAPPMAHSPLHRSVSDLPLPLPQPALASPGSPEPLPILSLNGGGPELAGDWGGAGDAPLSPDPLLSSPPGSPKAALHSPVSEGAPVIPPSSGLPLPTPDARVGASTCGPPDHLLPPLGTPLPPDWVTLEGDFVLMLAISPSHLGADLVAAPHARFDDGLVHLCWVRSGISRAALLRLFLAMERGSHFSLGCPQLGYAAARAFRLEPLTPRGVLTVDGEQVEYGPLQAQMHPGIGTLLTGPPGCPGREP

CSNK2A1 (human) = CSNK2A1 (human) (UniProt P68400)
Sequence of CSNK2A1 (human) (P68400 whole entry, looked up): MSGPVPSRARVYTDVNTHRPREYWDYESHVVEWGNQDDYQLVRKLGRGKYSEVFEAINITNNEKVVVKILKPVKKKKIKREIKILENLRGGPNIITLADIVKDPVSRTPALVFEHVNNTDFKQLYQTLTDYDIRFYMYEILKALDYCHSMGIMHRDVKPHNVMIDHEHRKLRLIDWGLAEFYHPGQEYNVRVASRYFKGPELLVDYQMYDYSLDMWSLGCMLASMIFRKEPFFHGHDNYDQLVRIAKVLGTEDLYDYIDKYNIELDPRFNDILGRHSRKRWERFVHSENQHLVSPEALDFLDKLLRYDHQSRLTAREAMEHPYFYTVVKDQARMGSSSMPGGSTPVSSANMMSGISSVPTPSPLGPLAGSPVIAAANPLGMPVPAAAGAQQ

CDK1 (human) = CDK1 (human) (UniProt P06493)
Sequence of CDK1 (human) (P06493 whole entry, looked up): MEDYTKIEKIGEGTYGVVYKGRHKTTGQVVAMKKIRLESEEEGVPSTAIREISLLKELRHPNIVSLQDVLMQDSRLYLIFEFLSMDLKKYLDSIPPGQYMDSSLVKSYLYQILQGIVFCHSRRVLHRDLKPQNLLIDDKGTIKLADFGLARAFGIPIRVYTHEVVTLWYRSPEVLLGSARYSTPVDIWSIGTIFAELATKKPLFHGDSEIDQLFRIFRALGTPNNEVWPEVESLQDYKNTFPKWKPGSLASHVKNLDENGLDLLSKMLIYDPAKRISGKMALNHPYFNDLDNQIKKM

JAK2 JH1 JH2 (human) = JAK2 JH1 JH2 (human) (UniProt O60674)
SPHK1 (human) = SPHK1 (human) (UniProt Q9NYA1)
MAPK12 (human) = MAPK12 (human) (UniProt P53778)
DYRK1B (human) = DYRK1B (human) (UniProt Q9Y463); conditions: compound 4.0 µM
PTK2B (human) = PTK2B (human) (UniProt Q14289)

Sequence of PRKD2 (human) (Q9BZL6 whole entry, looked up): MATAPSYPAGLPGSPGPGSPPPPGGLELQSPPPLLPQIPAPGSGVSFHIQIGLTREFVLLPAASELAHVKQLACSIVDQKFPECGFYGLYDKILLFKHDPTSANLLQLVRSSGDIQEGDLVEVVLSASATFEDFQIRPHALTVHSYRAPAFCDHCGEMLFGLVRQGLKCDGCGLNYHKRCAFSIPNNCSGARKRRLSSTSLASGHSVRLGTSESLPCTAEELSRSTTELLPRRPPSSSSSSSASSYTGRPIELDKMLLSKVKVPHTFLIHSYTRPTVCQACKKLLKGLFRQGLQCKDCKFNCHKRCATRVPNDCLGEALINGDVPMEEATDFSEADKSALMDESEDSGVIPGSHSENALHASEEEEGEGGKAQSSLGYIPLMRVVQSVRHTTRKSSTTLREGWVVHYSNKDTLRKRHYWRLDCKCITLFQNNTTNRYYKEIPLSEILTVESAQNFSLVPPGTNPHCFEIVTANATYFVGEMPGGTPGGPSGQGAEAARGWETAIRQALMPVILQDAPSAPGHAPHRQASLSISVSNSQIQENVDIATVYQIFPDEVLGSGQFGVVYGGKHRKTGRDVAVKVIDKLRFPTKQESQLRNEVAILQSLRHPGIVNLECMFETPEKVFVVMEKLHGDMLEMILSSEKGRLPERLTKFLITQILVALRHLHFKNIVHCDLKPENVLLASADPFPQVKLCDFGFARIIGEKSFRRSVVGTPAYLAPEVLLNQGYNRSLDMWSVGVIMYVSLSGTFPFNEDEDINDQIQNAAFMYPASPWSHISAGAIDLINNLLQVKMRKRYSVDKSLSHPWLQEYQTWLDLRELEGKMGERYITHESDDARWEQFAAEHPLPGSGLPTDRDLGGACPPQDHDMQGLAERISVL
Sequence of KIT (human) (P10721 whole entry, looked up): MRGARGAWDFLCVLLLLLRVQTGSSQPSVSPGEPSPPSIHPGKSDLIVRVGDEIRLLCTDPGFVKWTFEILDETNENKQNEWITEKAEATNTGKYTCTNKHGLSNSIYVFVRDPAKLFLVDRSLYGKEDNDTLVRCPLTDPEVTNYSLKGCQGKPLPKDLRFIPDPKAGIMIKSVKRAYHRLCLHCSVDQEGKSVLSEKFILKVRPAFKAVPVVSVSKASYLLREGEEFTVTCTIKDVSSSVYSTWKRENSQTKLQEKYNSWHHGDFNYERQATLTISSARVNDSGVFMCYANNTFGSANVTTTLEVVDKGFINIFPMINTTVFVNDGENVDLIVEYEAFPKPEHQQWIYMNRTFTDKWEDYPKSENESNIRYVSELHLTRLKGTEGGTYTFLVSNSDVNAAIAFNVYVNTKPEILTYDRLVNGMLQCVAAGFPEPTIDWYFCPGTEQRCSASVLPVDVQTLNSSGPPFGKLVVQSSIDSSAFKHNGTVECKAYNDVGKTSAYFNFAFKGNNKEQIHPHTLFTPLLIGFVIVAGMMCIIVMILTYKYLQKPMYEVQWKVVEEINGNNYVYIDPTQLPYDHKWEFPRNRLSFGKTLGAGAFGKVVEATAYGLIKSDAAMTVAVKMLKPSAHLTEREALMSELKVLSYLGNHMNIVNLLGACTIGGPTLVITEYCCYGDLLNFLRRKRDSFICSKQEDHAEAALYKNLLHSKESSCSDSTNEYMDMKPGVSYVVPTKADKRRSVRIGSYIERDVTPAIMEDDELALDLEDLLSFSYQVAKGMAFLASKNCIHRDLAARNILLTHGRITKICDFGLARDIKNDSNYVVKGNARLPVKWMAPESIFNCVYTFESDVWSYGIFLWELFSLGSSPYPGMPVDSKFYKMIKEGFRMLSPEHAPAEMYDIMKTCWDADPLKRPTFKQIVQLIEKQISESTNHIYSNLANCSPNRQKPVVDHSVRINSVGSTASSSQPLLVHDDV

SMILES: CCN(CC)CCNC(=O)c1c(C)[nH]c(/C=C2\C(=O)Nc3ccc(F)cc32)c1C
- inhibition (EPHA1 (human); compound 0.2 µM): 8.2%
- inhibition (EPHA1 (human); compound 4.0 µM): 66.9%
- inhibition (IKBKE (human); compound 0.2 µM): 11.9%
- inhibition (IKBKE (human); compound 4.0 µM): 71.8%
- inhibition (RPS6KA1 KD1 KD2 (human)): 53.9%
- inhibition (ABL2 (human); compound 0.2 µM): 13.7%
- inhibition (ABL2 (human); compound 4.0 µM): 66.6%
- inhibition (KIT (human); compound 0.2 µM): 76.7%
- inhibition (KIT (human); compound 4.0 µM): 100%
- Ki (PRKD2 (human)): 52 nM
- inhibition (PRKD2 (human); compound 0.2 µM): 65.6%
- inhibition (PRKD2 (human); compound 4.0 µM): 97.9%
- inhibition (CDC7 (human); compound 0.2 µM): 0.9%
- inhibition (CDC7 (human); compound 4.0 µM): 4.9%
- inhibition (TNIK (human); compound 0.2 µM): 87.5%
- inhibition (TNIK (human); compound 4.0 µM): 98.1%
- inhibition (TNK2 (human); compound 0.2 µM): 13.6%
- inhibition (TNK2 (human); compound 4.0 µM): 76.8%
- inhibition (CDK7 (human); compound 0.2 µM): 87.6%
- inhibition (CDK7 (human); compound 4.0 µM): 98.8%
- inhibition (CSK (human); compound 0.2 µM): 1.2%
- inhibition (CSK (human); compound 4.0 µM): 17.6%
- inhibition (ALK NPM1 (human); compound 0.2 µM): 76%
- inhibition (ALK NPM1 (human); compound 4.0 µM): 100%
- inhibition (NIM1 (human); compound 0.2 µM): 17.9%
- inhibition (NIM1 (human); compound 4.0 µM): 67.1%
- inhibition (FGFR2 (human); compound 0.2 µM): 71.3%
- inhibition (FGFR2 (human); compound 4.0 µM): 99.7%
- inhibition (CDK6 (human); compound 0.2 µM): 23.8%
- inhibition (CDK6 (human); compound 4.0 µM): 89.2%
- inhibition (RET (human); compound 0.2 µM): 99.2%
- inhibition (RET (human); compound 4.0 µM): 103%
- inhibition (FGR (human)): 63.4%
- inhibition (HCK (human); compound 0.2 µM): 38%
- inhibition (HCK (human); compound 4.0 µM): 94.6%
- inhibition (PHKG2 (human); compound 0.2 µM): 85.2%
- inhibition (PHKG2 (human); compound 4.0 µM): 99%
- inhibition (BTK (human); compound 0.2 µM): 2.7%
- inhibition (BTK (human); compound 4.0 µM): 51.2%
- inhibition (TSSK2 (human); compound 0.2 µM): -0.6%
- inhibition (TSSK2 (human); compound 4.0 µM): 35.3%
- inhibition (CAMK2B (human); compound 0.2 µM): 5.2%
- inhibition (CAMK2B (human); compound 4.0 µM): 66.5%
- inhibition (AKT1 (human); compound 0.2 µM): -0.8%
- inhibition (AKT1 (human); compound 4.0 µM): 35.7%
- inhibition (PRKCI (human); compound 0.2 µM): -2%
- inhibition (PRKCI (human); compound 4.0 µM): 7.8%
- inhibition (SPHK2 (human); compound 0.2 µM): -6.9%
- inhibition (SPHK2 (human); compound 4.0 µM): 4.7%
- inhibition (CSNK2A1 (human); compound 0.2 µM): -0.4%
- inhibition (CSNK2A1 (human); compound 4.0 µM): 19.9%
- inhibition (CDK1 (human); compound 0.2 µM): -3%
- inhibition (CDK1 (human); compound 4.0 µM): 16%
- inhibition (JAK2 JH1 JH2 (human); compound 0.2 µM): 36.5%
- inhibition (JAK2 JH1 JH2 (human); compound 4.0 µM): 94.6%
- inhibition (SPHK1 (human); compound 0.2 µM): -10.4%
- inhibition (SPHK1 (human); compound 4.0 µM): -9.1%
- inhibition (MAPK12 (human); compound 0.2 µM): -4.2%
- inhibition (MAPK12 (human); compound 4.0 µM): -6.2%
- inhibition (DYRK1B (human)): 74.7%
- inhibition (PTK2B (human); compound 0.2 µM): 72.4%
- inhibition (PTK2B (human); compound 4.0 µM): 101%
